Test results taken from US10131652B2, “Pyrimidinyloxy benzene derivatives as herbicides” (E. I. DU PONT DE NEMOURS AND COMPANY, priority 2014, dated 2018).
Where two headings read alike, the source gives them in different places.

What was measured:
Assay in all cases: Test D pre-/postemergence plant response
Type in all cases: in vivo
[1] = tested on: Italian ryegrass (Lolium multiflorum); conditions: Lolium multiflorum; for pest or weed control at 31 g/ha: 31 g ai/ha; for pest or weed control at 62 g/ha: 62 g ai/ha; for pest or weed control at 125 g/ha: 125 g ai/ha; for pest or weed control at 250 g/ha: 250 g ai/ha
Method in brief: (§1)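 Two application timings were run together: preemergence onto seeded loam–sand pots, and postemergence onto 1- to 4-leaf plants (2 to 18 cm) in peat/vermiculite medium with starter nutrients. Formulation was a non-phytotoxic solvent with surfactant. Ratings, 0 to 100, were made visually versus controls after 13 to 15 greenhouse days.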

[2] = tested on: barnyardgrass (Echinochloa crus-galli); conditions: Echinochloa crus-galli; for pest or weed control at 31 g/ha: 31 g ai/ha, scale 0 to 100 (0 no effect, 100 complete control); for pest or weed control at 62 g/ha: 62 g ai/ha; for pest or weed control at 125 g/ha: 125 g ai/ha; for pest or weed control at 250 g/ha: 250 g ai/ha
Method in brief: as §1

[3] = tested on: blackgrass (Alopecurus myosuroides); conditions: Alopecurus myosuroides; for pest or weed control at 31 g/ha: 31 g ai/ha; for pest or weed control at 62 g/ha: 62 g ai/ha; for pest or weed control at 125 g/ha: 125 g ai/ha; for pest or weed control at 250 g/ha: 250 g ai/ha
Method in brief: as §1

corn (Zea mays) = conditions: Zea mays; for Corn plant response rating (crop injury, 0 = no effect, 100 = complete kill) at 62 g/ha: 62 g ai/ha
Method in brief: as §1

[4] = tested on: galium (catchweed bedstraw, Galium aparine); conditions: Galium; for pest or weed control at 31 g/ha: 31 g ai/ha; for pest or weed control at 62 g/ha: 62 g ai/ha; for pest or weed control at 125 g/ha: 125 g ai/ha; for pest or weed control at 250 g/ha: 250 g ai/ha
Method in brief: as §1

[5] = tested on: giant foxtail (Setaria faberii); conditions: Setaria faberi, post-emergence, Postemergence
Method in brief: as §1

[6] = post-emergence, Postemergence, scale 0 to 100, 0 no effect, 100 complete control, read-out: Plant response rating, Ryegrass, Italian
[7] = pre-emergence, Preemergence, read-out: Plant response rating (scale 0 to 100), Ryegrass, Italian
[8] = pre-emergence, Preemergence, scale 0 to 100 (0 no effect, 100 complete control), read-out: Plant response rating, Ryegrass, Italian
[9] = post-emergence, Postemergence, scale 0 to 100, 0 no effect, 100 complete control, read-out: Plant response rating, Barnyardgrass
[10] = pre-emergence, Preemergence, read-out: Plant response rating (scale 0 to 100), Barnyardgrass
[11] = post-emergence, Postemergence, scale 0 to 100, 0 no effect, 100 complete control, read-out: Plant response rating, Blackgrass
[12] = pre-emergence, Preemergence, read-out: Plant response rating (scale 0 to 100), Blackgrass
[13] = pre-emergence, Preemergence, scale 0 to 100 (0 no effect, 100 complete control), read-out: Plant response rating, Blackgrass
[14] = post-emergence, Postemergence, scale 0 to 100, 0 no effect, 100 complete control, read-out: Plant response rating, Galium
[15] = pre-emergence, Preemergence, read-out: Plant response rating (scale 0 to 100), Galium
[16] = pre-emergence, Preemergence, scale 0 to 100 (0 no effect, 100 complete control), read-out: Plant response rating, Galium

## FC(F)c1cc(-c2ccccc2Oc2ncc(Br)cn2)no1 [Compound 62, 5-bromo-2-[2-[5-(difluoromethyl)-3-isoxazolyl]phenoxy]pyrimidine]
[1]; post-emergence, Postemergence, scale 0 to 100 (0 no effect, 100 complete control), read-out: Ryegrass, Italian plant response rating
  pest or weed control at 31 g/ha: 5%
[1]; [6]
  pest or weed control at 62 g/ha: 5%
  pest or weed control at 125 g/ha: 30%
  pest or weed control at 250 g/ha: 40%
[1]; [7]
  pest or weed control at 125 g/ha: 90%
  pest or weed control at 250 g/ha: 95%
[1]; [8]
  pest or weed control at 31 g/ha: 40%
  pest or weed control at 62 g/ha: 60%
[2]; post-emergence, Postemergence, read-out: Barnyardgrass plant response rating
  pest or weed control at 31 g/ha: 50%
[2]; [9]
  pest or weed control at 62 g/ha: 35%
  pest or weed control at 125 g/ha: 30%
  pest or weed control at 250 g/ha: 95%
[2]; [10]
  pest or weed control at 62 g/ha: 98%
  pest or weed control at 125 g/ha: 100%
  pest or weed control at 250 g/ha: 100%
[2]; pre-emergence, Preemergence, read-out: Plant response rating, Barnyardgrass
  pest or weed control at 31 g/ha: 50%
[3]; post-emergence, Postemergence, scale 0 to 100 (0 no effect, 100 complete control), read-out: Blackgrass plant response rating
  pest or weed control at 31 g/ha: 20%
[3]; [11]
  pest or weed control at 62 g/ha: 25%
  pest or weed control at 125 g/ha: 40%
  pest or weed control at 250 g/ha: 60%
[3]; [12]
  pest or weed control at 125 g/ha: 90%
  pest or weed control at 250 g/ha: 90%
[3]; [13]
  pest or weed control at 31 g/ha: 5%
  pest or weed control at 62 g/ha: 90%
Corn (Zea mays); post-emergence, Postemergence, 31 g ai/ha, scale 0 to 100 (0 no effect, 100 complete control), read-out: Corn plant response rating
  plant injury at 31 g/ha: 10%
Corn (Zea mays); post-emergence, Postemergence, scale 0 to 100, 0 no effect, 100 complete control
  Corn plant response rating (crop injury, 0 = no effect, 100 = complete kill) at 62 g/ha: 10%
Corn (Zea mays); post-emergence, Postemergence, 125 g ai/ha, scale 0 to 100, 0 no effect, 100 complete control
  Corn plant response rating (crop injury, 0 = no effect, 100 = complete kill) at 125 g/ha: 15%
Corn (Zea mays); post-emergence, Postemergence, 250 g ai/ha, scale 0 to 100, 0 no effect, 100 complete control
  Corn plant response rating (crop injury, 0 = no effect, 100 = complete kill) at 250 g/ha: 10%
Corn (Zea mays); pre-emergence, Preemergence, 125 g ai/ha, read-out: Plant response rating (scale 0 to 100), Corn
  plant injury at 125 g/ha: 60%
Corn (Zea mays); pre-emergence, Preemergence, 250 g ai/ha, read-out: Plant response rating (scale 0 to 100), Corn
  plant injury at 250 g/ha: 70%
Corn (Zea mays); pre-emergence, Preemergence, 31 g ai/ha, scale 0 to 100 (0 no effect, 100 complete control)
  Corn plant response rating (crop injury, 0 = no effect, 100 = complete kill) at 31 g/ha: 35%
Corn (Zea mays); pre-emergence, Preemergence, scale 0 to 100 (0 no effect, 100 complete control)
  Corn plant response rating (crop injury, 0 = no effect, 100 = complete kill) at 62 g/ha: 30%
[4]; post-emergence, Postemergence, scale 0 to 100 (0 no effect, 100 complete control), read-out: Galium plant response rating
  pest or weed control at 31 g/ha: 85%
[4]; [14]
  pest or weed control at 62 g/ha: 85%
  pest or weed control at 125 g/ha: 100%
  pest or weed control at 250 g/ha: 100%
[4]; [15]
  pest or weed control at 125 g/ha: 100%
  pest or weed control at 250 g/ha: 100%
[4]; [16]
  pest or weed control at 31 g/ha: 100%
  pest or weed control at 62 g/ha: 100%
[5]; 31 g ai/ha, scale 0 to 100 (0 no effect, 100 complete control), read-out: Foxtail, Giant plant response rating
  pest or weed control at 31 g/ha: 25%
[5]; 62 g ai/ha, scale 0 to 100, 0 no effect, 100 complete control, read-out: Plant response rating, Foxtail, Giant
  pest or weed control at 62 g/ha: 25%
[5]; 125 g ai/ha, scale 0 to 100, 0 no effect, 100 complete control, read-out: Plant response rating, Foxtail, Giant
  pest or weed control at 125 g/ha: 20%
[5]; 250 g ai/ha, scale 0 to 100, 0 no effect, 100 complete control, read-out: Plant response rating, Foxtail, Giant
  pest or weed control at 250 g/ha: 55%
